Experimental data: patent publication US20240174611A1 (Rappta Therapeutics Oy, priority 2021, published 2024)

Tested on: LNCaP cells
Test: LNCaP cell viability assay (MTS)
Assay type: cell-based
Settings: Homo sapiens, LNCaP, 48 h, LNCaP cell line, 48 hours treatment
Procedure: LNCaP cell line was used for the cell viability assay. LNCaP cells were plated in 96-well plates at a density of 5000 cells per well. After 24 hours of plating, the cells were treated with increasing doses of compound 1-100 ranging from 1 μM to 80 μM. Relative cell numbers were analyzed after 48 hours using 3-(4,5-dimethylthiazol-2-yl)-5-(3-carboxymethoxyphenyl)-2-(4-sulfophenyl)-2H-tetrazolium (MTS) assay (Promega) according to the manufacturer's instructions.
The cell viability data was analyzed with GraphPad Prism software. The values were log transformed and analyzed with non-linear regression (curve-fit) using log(inhibitor) vs. response—variable slope (four parameters) and constraining the bottom to equal zero. Unless otherwise indicated, the GI50 values provided in Table 35 correspond to the LNCaP cell viability assays.

Row | Structure (SMILES) | GI50
1 | O=S(=O)(NC1(c2ccccc2)CNC1)c1ccc(OC(F)(F)F)cc1 [Compound 46, N-(3-phenylazetidin-3-yl)-4-(trifluoromethoxy)benzenesulfonamide] | ≥ 80 µM
2 | O=S(=O)(NC1(c2ccc(Cl)cc2)CNC1)c1ccc(OC(F)(F)F)cc1 [Compound 47, N-(3-(4-chlorophenyl)azetidin-3-yl)-4-(trifluoromethoxy)benzenesulfonamide] | 31.8 µM
3 | O=S(=O)(NC1(c2ccc(Cl)c(Cl)c2)CNC1)c1ccc(OC(F)(F)F)cc1 [Compound 48, N-(3-(3,4-dichlorophenyl)azetidin-3-yl)-4-(trifluoromethoxy)benzenesulfonamide] | 18.2 µM
4 | O=S(=O)(NC1(c2ccc(Cl)c(Cl)c2)CCNCC1)c1ccc(OC(F)(F)F)cc1 [Compound 49, N-(4-(3,4-dichlorophenyl)piperidin-4-yl)-4-(trifluoromethoxy)benzenesulfonamide] | 6.75 µM
5 | O=S(=O)(NC1(c2ccccc2)CCNCC1)c1ccc(OC(F)(F)F)cc1 [Compound 50, N-(4-phenylpiperidin-4-yl)-4-(trifluoromethoxy)benzenesulfonamide] | 23.3 µM
6 | O=S(=O)(NC1(c2ccc(Cl)c(F)c2)CCNC1)c1ccc(OC(F)(F)F)cc1 (stereo not drawn) [Compound 52, N-(3-(4-chloro-3-fluorophenyl)pyrrolidin-3-yl)-4-(trifluoromethoxy)benzenesulfonamide] | 23.4 µM
7 | CC(C)(C)OC(=O)N1CCC(NS(=O)(=O)c2ccc(OC(F)(F)F)cc2)(c2ccc(Cl)cc2)CC1 [Compound 53, tert-butyl 4-(4-chlorophenyl)-4-((4-(trifluoromethoxy)phenyl)sulfonamido)piperidine-1-carboxylate] | 16.3 µM
8 | O=S(=O)(NC1(c2ccc(Cl)cc2)CCN(Cc2ccccc2)C1)c1ccc(Oc2ccc(C(F)(F)F)cc2)cc1 (stereo not drawn) [Compound 54, N-(1-benzyl-3-(4-chlorophenyl)pyrrolidin-3-yl)-4-(4-(trifluoromethyl)phenoxy)benzenesulfonamide] | 26.8 µM
9 | O=S(=O)(NC1(c2ccc(Cl)c(Cl)c2)CCN(Cc2ccccc2)C1)c1ccc(Oc2ccc(C(F)(F)F)cc2)cc1 (stereo not drawn) [Compound 55, N-(1-benzyl-3-(3,4-dichlorophenyl)pyrrolidin-3-yl)-4-(4-(trifluoromethyl)phenoxy)benzenesulfonamide] | 38 µM
10 | O=S(=O)(NC1(c2ccc(Cl)c(F)c2)CCNCC1)c1ccc(OC(F)(F)F)cc1 [Compound 56, N-(4-(4-chloro-3-fluorophenyl)piperidin-4-yl)-4-(trifluoromethoxy)benzenesulfonamide] | 11 µM
11 | O=S(=O)(NC1(c2ccc(Cl)cc2)CCNC1)c1ccc(Oc2ccc(C(F)(F)F)cc2)cc1 (stereo not drawn) [Compound 57, N-(3-(4-chlorophenyl)pyrrolidin-3-yl)-4-(4-(trifluoromethyl)phenoxy)benzenesulfonamide] | 10.6 µM
12 | O=S(=O)(NC1(c2ccc(Cl)c(F)c2)CNC1)c1ccc(OC(F)(F)F)cc1 [Compound 58, N-(3-(4-chloro-3-fluorophenyl)azetidin-3-yl)-4-(trifluoromethoxy)benzenesulfonamide] | 23.2 µM
13 | O=S(=O)(NC1(c2ccc(F)cc2)CCNCC1)c1ccc(OC(F)(F)F)cc1 [Compound 59, N-(4-(4-fluorophenyl)piperidin-4-yl)-4-(trifluoromethoxy)benzenesulfonamide] | 18.1 µM
14 | O=S(=O)(NC1(c2ccccc2)CCNCC1)c1ccc(OC(F)(F)F)nc1 [Compound 60, N-(4-phenylpiperidin-4-yl)-6-(trifluoromethoxy)pyridine-3-sulfonamide] | 49.6 µM
15 | CN1CCC(NS(=O)(=O)c2ccc(OC(F)(F)F)cc2)(c2ccccc2)CC1 [Compound 61, N-(1-methyl-4-phenylpiperidin-4-yl)-4-(trifluoromethoxy)benzenesulfonamide] | 44.1 µM
16 | CC(C)Oc1ccc(S(=O)(=O)NC2(c3ccc(Cl)cc3)CCNCC2)cc1 [Compound 62, N-(4-(4-chlorophenyl)piperidin-4-yl)-4-isopropoxybenzenesulfonamide] | 11.3 µM
17 | N=S(=O)(NC1(c2ccc(Cl)cc2)CCNC1)c1ccc(OC(F)(F)F)cc1 (stereo not drawn) [Compound 63, N-(3-(4-chlorophenyl)pyrrolidin-3-yl)-4-(trifluoromethoxy)benzenesulfonimidamide] | 38.4 µM
18 | O=S(=O)(NC1(c2ccc(Cl)cc2)CCNC1)c1ccc(OC(F)(F)F)nc1 (stereo not drawn) [Compound 64, N-(3-(4-chlorophenyl)pyrrolidin-3-yl)-6-(trifluoromethoxy)pyridine-3-sulfonamide] | 44.9 µM
19 | O=S(=O)(NC1(C23CC(C2)C3)CCNCC1)c1ccc(OC(F)(F)F)cc1 [Compound 66, N-(4-(bicyclo[1.1.1]pentan-1-yl)piperidin-4-yl)-4-(trifluoromethoxy)benzenesulfonamide] | 68.6 µM
20 | CC(C)Oc1ccc(S(=O)(=O)NC2(c3ccc(Cl)cc3)CCNCC2)cn1 [Compound 67, N-(4-(4-chlorophenyl)piperidin-4-yl)-6-isopropoxypyridine-3-sulfonamide] | 18.2 µM
21 | CN=S(=O)(NC1(c2ccc(Cl)cc2)CCNC1)c1ccc(OC(F)(F)F)cc1 (stereo not drawn) [Compound 68, N-(3-(4-chlorophenyl)pyrrolidin-3-yl)-N′-methyl-4-(trifluoromethoxy)benzenesulfonimidamide] | 27.2 µM
22 | CN1CCC(NS(=O)(=O)c2ccc(OC(F)(F)F)cc2)(c2ccc(Cl)cc2)C1 (stereo not drawn) [Compound 69, N-(3-(4-chlorophenyl)-1-methylpyrrolidin-3-yl)-4-(trifluoromethoxy)benzenesulfonamide] | 19.5 µM
23 | O=S(=O)(NC1(c2ccccc2)CC2CCC(C1)N2)c1ccc(OC(F)(F)F)cc1 (stereo not drawn) [Compound 86, N-(3-phenyl-8-azabicyclo[3.2.1]octan-3-yl)-4-(trifluoromethoxy)benzenesulfonamide] | 23.7 µM

Further lines, results first:

Row | GI50 | Structure (SMILES)
24 | 21.7 µM | CC(C)(C)OC(=O)N1CCC(NS(=O)(=O)c2ccc(OC(F)(F)F)cc2)(c2ccc(Cl)cc2)C1 (stereo not drawn) [Compound 70]
25 | 59.1 µM | O=S(=O)(NC1(c2ccc(Cl)cc2)CCN(C2COC2)C1)c1ccc(OC(F)(F)F)cc1 (stereo not drawn) [Compound 71, N-(3-(4-chlorophenyl)-1-(oxetan-3-yl)pyrrolidin-3-yl)-4-(trifluoromethoxy)benzenesulfonamide]
26 | 50.4 µM | CS(=O)(=O)N1CCC(NS(=O)(=O)c2ccc(OC(F)(F)F)cc2)(c2ccc(Cl)cc2)C1 (stereo not drawn) [Compound 72, N-(3-(4-chlorophenyl)-1-(methylsulfonyl)pyrrolidin-3-yl)-4-(trifluoromethoxy)benzenesulfonamide]
27 | 56.4 µM | O=S(=O)(NC1(c2ncc(Cl)s2)CCNCC1)c1ccc(OC(F)(F)F)cc1 [Compound 73, N-(4-(5-chlorothiazol-2-yl)piperidin-4-yl)-4-(trifluoromethoxy)benzenesulfonamide]
28 | 47.9 µM | O=S(=O)(NC1(c2ccc(F)cc2)CCNC1)c1ccc(OC(F)(F)F)cc1 (stereo not drawn) [Compound 74, N-(3-(4-fluorophenyl)pyrrolidin-3-yl)-4-(trifluoromethoxy)benzenesulfonamide]
29 | 30.7 µM | CC(C)Oc1ccc(S(=O)(=O)NC2(c3ccc(F)cc3)CCNCC2)cc1 [Compound 75, N-(4-(4-fluorophenyl)piperidin-4-yl)-4-isopropoxybenzenesulfonamide]
30 | 41.7 µM | CC(C)Oc1ccc(S(=O)(=O)NC2(c3ccc(F)cc3)CCNCC2)cn1 [Compound 77, N-(4-(4-fluorophenyl)piperidin-4-yl)-6-isopropoxypyridine-3-sulfonamide]
31 | 70.5 µM | CC(C)Oc1ccc(S(=O)(=O)NC2(c3ccc(F)cc3)CCNC2)cc1 (stereo not drawn) [Compound 78, N-(3-(4-fluorophenyl)pyrrolidin-3-yl)-4-isopropoxybenzenesulfonamide]
32 | 50 µM | CC(C)Oc1ccc(S(=O)(=O)NC2(c3ccc(Cl)cc3)CCNC2)cn1 (stereo not drawn) [Compound 80, N-(3-(4-chlorophenyl)pyrrolidin-3-yl)-6-isopropoxypyridine-3-sulfonamide]
33 | 45.8 µM | CC(C)CC(=O)N1CCC(NS(=O)(=O)c2ccc(OC(F)(F)F)cc2)(c2ccc(Cl)cc2)C1 (stereo not drawn) [Compound 81, N-(3-(4-chlorophenyl)-1-(3-methylbutanoyl)pyrrolidin-3-yl)-4-(trifluoromethoxy)benzenesulfonamide]
34 | 14.4 µM | O=S(=O)(NC1(c2ccc(F)c(F)c2)CCNCC1)c1ccc(OC(F)(F)F)cc1 [Compound 82, N-(4-(3,4-difluorophenyl)piperidin-4-yl)-4-(trifluoromethoxy)benzenesulfonamide]
35 | 32 µM | O=S(=O)(NC1(c2ccc(F)cc2F)CCNCC1)c1ccc(OC(F)(F)F)cc1 [Compound 83, N-(4-(2,4-difluorophenyl)piperidin-4-yl)-4-(trifluoromethoxy)benzenesulfonamide]
36 | 33.5 µM | CN(C1(c2ccc(Cl)cc2)CCNC1)S(=O)(=O)c1ccc(OC(F)(F)F)cc1 (stereo not drawn) [Compound 85, N-(3-(4-chlorophenyl)pyrrolidin-3-yl)-N-methyl-4-(trifluoromethoxy)benzenesulfonamide]
37 | 46.6 µM | O=S(=O)(NC1(c2ccc(Cl)cn2)CCNCC1)c1ccc(OC(F)(F)F)cc1 [Compound 87, N-(4-(5-chloropyridin-2-yl)piperidin-4-yl)-4-(trifluoromethoxy)benzenesulfonamide]
38 | 36.5 µM | O=S(=O)(NC1(c2cc(F)ccc2F)CCNCC1)c1ccc(OC(F)(F)F)cc1 [Compound 88, N-(4-(2,5-difluorophenyl)piperidin-4-yl)-4-(trifluoromethoxy)benzenesulfonamide]
39 | 46.6 µM | O=S(=O)(NC1(c2ccc(Cl)c(Cl)c2)CC1)c1ccc(OC(F)(F)F)cc1 [Compound 89, N-(1-(3,4-dichlorophenyl)cyclopropyl)-4-(trifluoromethoxy)benzenesulfonamide]
